Data taken from US11000033B2, “Ketone or oxime compound, and herbicide” (NISSAN CHEMICAL CORPORATION, priority 2014, dated 2021).

Key:
Assay type in all cases: in vivo
[1] = test system: Echinochloa crus-galli var. crus-galli; assay: Test Example 3: herbicidal effect by foliage application, Wagner pot (symbol H); settings: application herbicide amount 320 g/ha
Method in brief: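 Scoring took place 3 weeks after application, using fixed criteria. Plants had been raised from seed for 14 days at 25 to 30 °C in submerged alluvial soil before a diluted emulsion of the test compound was sprayed uniformly on the leaves.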

[2] = test system: Avena fatua; assay: Test Example 4: herbicidal effect by soil treatment (symbol I)
Method in brief: (§1)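 Seeds were sown in sterilized diluvial soil, covered with about 1.5 cm of soil, and the soil surface was sprayed with a water-diluted emulsion of the compound at a predetermined rate. Plants grew in a greenhouse at 25° C. to 30° C.; effects were scored visually 3 weeks after application.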

[3] = test system: Apera spica-venti; assay: Test Example 4: herbicidal effect by soil treatment (symbol L); settings: application herbicide amount 320 g/ha
Method in brief: as §1

[4] = test system: Stellaria media; assay: Test Example 4: herbicidal effect by soil treatment (symbol P)
Method in brief: as §1

[5] = test system: wheat; assay: Test Example 4: effect on crop by soil treatment (symbol e); settings: for e: wheat, effect on crop grade / e (wheat) effect on crop grade: application herbicide amount 320 g/ha
Method in brief: (§2)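 Plants are raised in a greenhouse (25° C. to 30° C.) from spot-sown seed, which sits under about 1.5 cm of sterilized diluvial soil in a box shared with weed species.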

[6] = test system: rapeseed; assay: Test Example 4: effect on crop by soil treatment (symbol g); settings: for g: rapeseed, effect on crop grade / g (rapeseed) effect on crop grade: application herbicide amount 320 g/ha
Method in brief: as §2

[7] = test system: Digitaria ciliaris; assay: Test Example 5: herbicidal effect by foliage application, plastic box (symbol F); settings: 320 g/ha, 3 weeks after application
Method in brief: (§3)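 Leaf-applied emulsion, water-diluted to a preset herbicide dose, on two-week-old seedlings raised in a 25° C. to 30° C. greenhouse; injury rated at 3 weeks using earlier criteria.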

[8] = test system: Galium spurium; assay: Test Example 5: herbicidal effect by foliage application, plastic box (symbol Q); settings: 320 g/ha, 3 weeks after application
Method in brief: as §3

[9] = test system: Veronica persica; assay: Test Example 5: herbicidal effect by foliage application, plastic box (symbol R); settings: 320 g/ha, 3 weeks after application
Method in brief: as §3

[10] = test system: rice plant; assay: Test Example 5: effect on crop by foliage application, plastic box (symbol b); settings: 320 g/ha, 3 weeks after application
Method in brief: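 Greenhouse culture at 25° C. to 30° C. followed spot-like sowing into sterilized diluvial soil, with seed covered by roughly 1.5 cm of soil.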

[11] = test system: Monochoria vaginalis; assay: Test Example 2: herbicidal activity, application during weed generation in submerged conditions (symbol C); settings: Table 23; application herbicide amount 320 g/ha; grade 0-5 by criteria of Test Example 1
Method in brief: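 Read-out: herbicidal effect on each species rated on a visual scale 3 weeks after treatment. Plants were raised together from seed in flooded alluvial soil (4 cm water) at 25° C. to 30° C. and treated at one to two leaves by water-surface application of diluted emulsion.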

[12] = application herbicide amount 320 g/ha

SMILES | herbicidal effect on H (Echinochloa crus-galli var. crus-galli), grade 0-5 [1] | I: Avena fatua, herbicidal effect grade [2, 12] | L: Apera spica-venti, herbicidal effect grade [3] | P: Stellaria media, herbicidal effect grade [4, 12] | e: wheat, effect on crop grade [5] | g: rapeseed, effect on crop grade [6] | F: Digitaria ciliaris, herbicidal effect grade [7] | Q: Galium spurium, herbicidal effect grade [8] | R: Veronica persica, herbicidal effect grade [9] | b: directly sowed rice plant, effect on crop grade [10] | Herbicidal effect grade, C: Monochoria vaginalis [11] | I (Avena fatua) herbicidal effect grade [2, 12] | L (Apera spica-venti) herbicidal effect grade [3] | e (wheat) effect on crop grade [5] | g (rapeseed) effect on crop grade [6] | P (Stellaria media) herbicidal effect grade [4, 12] | I: Avena fatua, herbicidal effect grade ([2]; 320 g/ha) | P: Stellaria media, herbicidal effect grade ([4]; 320 g/ha) | e: wheat, effect grade on crop ([5]; 320 g/ha) | g: rapeseed, effect grade on crop ([6]; 320 g/ha)
CON=C(C)CC1CC(O)=C(c2c(C)cc(-n3cc(Cl)cn3)cc2C)C1=O (mixture of isomers) [6-004] | 5 (Herbicidal ratio of 90% or more (almost completely withered)) | 4 (Herbicidal ratio of 70% or higher and lower than 90%) | 5 (Herbicidal ratio of 90% or more (almost completely withered)) | 0 (Herbicidal ratio of 5% or lower (almost no effect)) | 0 (Herbicidal ratio of 5% or lower (almost no effect)) | 4 (Herbicidal ratio of 70% or higher and lower than 90%) | 5 (Herbicidal ratio of 90% or more (almost completely withered)) | 3 (Herbicidal ratio of 40% or higher and lower than 70%) | 3 (Herbicidal ratio of 40% or higher and lower than 70%) | 5 (Herbicidal ratio of 90% or more (almost completely withered)) |  |  |  |  |  |  |  |  |  | 
CC#Cc1cc(C)c(C2=C(O)CC(CC(C)=NOC)C2=O)c(C)c1 (mixture of isomers) [6-009] | 5 (Herbicidal ratio of 90% or more (almost completely withered)) | 4 (Herbicidal ratio of 70% or higher and lower than 90%) | 5 (Herbicidal ratio of 90% or more (almost completely withered)) | 4 (Herbicidal ratio of 70% or higher and lower than 90%) | 5 (Herbicidal ratio of 90% or more (almost completely withered)) | 4 (Herbicidal ratio of 70% or higher and lower than 90%) | 5 (Herbicidal ratio of 90% or more (almost completely withered)) | 0 (Herbicidal ratio of 5% or lower (almost no effect)) |  | 5 (Herbicidal ratio of 90% or more (almost completely withered)) | 0 (Herbicidal ratio of 5% or lower (almost no effect)) |  |  |  |  |  |  |  |  | 
CON=C(C)CC1CC(O)=C(c2c(C)cc(C#CC3CC3)cc2C)C1=O (mixture of isomers) [6-010] | 5 (Herbicidal ratio of 90% or more (almost completely withered)) | 3 (Herbicidal ratio of 40% or higher and lower than 70%) | 5 (Herbicidal ratio of 90% or more (almost completely withered)) | 0 (Herbicidal ratio of 5% or lower (almost no effect)) | 4 (Herbicidal ratio of 70% or higher and lower than 90%) | 0 (Herbicidal ratio of 5% or lower (almost no effect)) | 5 (Herbicidal ratio of 90% or more (almost completely withered)) | 0 (Herbicidal ratio of 5% or lower (almost no effect)) |  | 5 (Herbicidal ratio of 90% or more (almost completely withered)) | 0 (Herbicidal ratio of 5% or lower (almost no effect)) |  |  |  |  |  |  |  |  | 
C#CCOC1=C(c2c(C)cc(C)cc2C)C(=O)C(CC(C)=NOC)C1 (stereo not shown) [1-008] | 5 (Herbicidal ratio of 90% or more (almost completely withered)) |  |  |  |  |  | 5 (Herbicidal ratio of 90% or more (almost completely withered)) | 0 (Herbicidal ratio of 5% or lower (almost no effect)) | 0 (Herbicidal ratio of 5% or lower (almost no effect)) | 4 (Herbicidal ratio of 70% or higher and lower than 90%) | 0 (Herbicidal ratio of 5% or lower (almost no effect)) | 0 (Herbicidal ratio of 5% or lower (almost no effect)) | 5 (Herbicidal ratio of 90% or more (almost completely withered)) | 0 (Herbicidal ratio of 5% or lower (almost no effect)) | 0 (Herbicidal ratio of 5% or lower (almost no effect)) |  |  |  |  | 
CON=C(C)CC1CC(OCCSC)=C(c2c(C)cc(C)cc2C)C1=O (stereo not shown) [1-011] | 0 (Herbicidal ratio of 5% or lower (almost no effect)) |  |  |  |  |  | 3 (Herbicidal ratio of 40% or higher and lower than 70%) |  | 0 (Herbicidal ratio of 5% or lower (almost no effect)) | 2 (Herbicidal ratio of 20% or higher and lower than 40%) | 0 (Herbicidal ratio of 5% or lower (almost no effect)) | 0 (Herbicidal ratio of 5% or lower (almost no effect)) | 0 (Herbicidal ratio of 5% or lower (almost no effect)) | 0 (Herbicidal ratio of 5% or lower (almost no effect)) | 0 (Herbicidal ratio of 5% or lower (almost no effect)) |  |  |  |  | 
CON=C(C)CC1CC(OCC#N)=C(c2c(C)cc(C)cc2C)C1=O (stereo not shown) [1-013] | 0 (Herbicidal ratio of 5% or lower (almost no effect)) |  |  |  |  |  | 0 (Herbicidal ratio of 5% or lower (almost no effect)) |  | 0 (Herbicidal ratio of 5% or lower (almost no effect)) | 2 (Herbicidal ratio of 20% or higher and lower than 40%) | 0 (Herbicidal ratio of 5% or lower (almost no effect)) | 0 (Herbicidal ratio of 5% or lower (almost no effect)) |  | 0 (Herbicidal ratio of 5% or lower (almost no effect)) | 0 (Herbicidal ratio of 5% or lower (almost no effect)) | 0 (Herbicidal ratio of 5% or lower (almost no effect)) |  |  |  | 
CON=C(C)CC1CC(OC(=O)Cc2ccc(OC)cc2)=C(c2c(C)cc(C)cc2C)C1=O (stereo not shown) [1-156] | 5 (Herbicidal ratio of 90% or more (almost completely withered)) |  |  |  |  |  | 5 (Herbicidal ratio of 90% or more (almost completely withered)) | 3 (Herbicidal ratio of 40% or higher and lower than 70%) | 4 (Herbicidal ratio of 70% or higher and lower than 90%) | 5 (Herbicidal ratio of 90% or more (almost completely withered)) | 3 (Herbicidal ratio of 40% or higher and lower than 70%) |  |  |  |  |  | 4 (Herbicidal ratio of 70% or higher and lower than 90%) | 2 (Herbicidal ratio of 20% or higher and lower than 40%) | 5 (Herbicidal ratio of 90% or more (almost completely withered)) | 4 (Herbicidal ratio of 70% or higher and lower than 90%)
Cc1cc(C)c(C2=C(O)CC(CC(=O)C(C)C)C2=O)c(C)c1 (stereo not shown) [2-016] | 5 (Herbicidal ratio of 90% or more (almost completely withered)) | 0 (Herbicidal ratio of 5% or lower (almost no effect)) | 2 (Herbicidal ratio of 20% or higher and lower than 40%) |  | 0 (Herbicidal ratio of 5% or lower (almost no effect)) | 2 (Herbicidal ratio of 20% or higher and lower than 40%) | 5 (Herbicidal ratio of 90% or more (almost completely withered)) | 0 (Herbicidal ratio of 5% or lower (almost no effect)) | 0 (Herbicidal ratio of 5% or lower (almost no effect)) | 5 (Herbicidal ratio of 90% or more (almost completely withered)) | 0 (Herbicidal ratio of 5% or lower (almost no effect)) |  |  |  |  |  |  |  |  | 
CON=C(C)CC1CC(O)=C(c2c(C)cc(-c3ccccc3)cc2C)C1=O (stereo not shown) [6-015] | 5 (Herbicidal ratio of 90% or more (almost completely withered)) | 0 (Herbicidal ratio of 5% or lower (almost no effect)) | 5 (Herbicidal ratio of 90% or more (almost completely withered)) | 2 (Herbicidal ratio of 20% or higher and lower than 40%) | 0 (Herbicidal ratio of 5% or lower (almost no effect)) | 4 (Herbicidal ratio of 70% or higher and lower than 90%) | 5 (Herbicidal ratio of 90% or more (almost completely withered)) | 2 (Herbicidal ratio of 20% or higher and lower than 40%) |  | 5 (Herbicidal ratio of 90% or more (almost completely withered)) | 5 (Herbicidal ratio of 90% or more (almost completely withered)) |  |  |  |  |  |  |  |  | 
